Series [1] has as its system Streptococcus pneumoniae ATCC49619. The series is described as follows: MIC against other strains, agar double dilution. The settings on record: ATCC49619, 24 h.
For another series, the system named is H37Rv. The experiment in a line: MIC susceptibility testing against H37Rv. It is filed as cell-based, Mycobacterium tuberculosis. The settings on record: for MIC: Mycobacterium tuberculosis; for Fold increase: B18 versus TBA-7371.
The test system of a further series is A549. The experiment in a line: Cell viability assay (MTT), A549. It is filed as cell-based. The following applies: Homo sapiens, 48 h. As to the method:
(§1) Cell viabilities were measured by 3-(4,5-dimethylthiazol-2-yl)−2,5-diphenyltetrazolium bromide (MTT) assay. Briefly, 20 µL of 5 mg/mL MTT solution was added to the culture medium and incubated at 37°C for 3 h. Then 50 µL of 20% (wt/vol) SDS was directly added to each well and incubated at 37°C overnight. The plates were shaken for 15 s and the […] reading were obtained at 570 nm wavelength. The IC50 values were calculated using the GraphPad Prism 8 software.

The test system of series [2] is Enterococcus faecalis ATCC29212. The experiment in a line: MIC against other strains, agar double dilution. The following applies: ATCC29212, 24 h.
Another series deals with Y198 (XDR). The series is described as follows: microbe, parasite or virus in culture. The format is cell-based, M. tuberculosis. The following applies: for MIC: Mycobacterium tuberculosis.
The test system of another series is VERO. The experiment in a line: Cell viability assay (MTT), VERO. The format is cell-based. The following applies: Chlorocebus sabaeus, 48 h. As for the experimental part: as §1
A further series concerns S. epidermidis ATCC12228. The series is described as follows: MIC against other strains, agar double dilution. The settings on record: Staphylococcus epidermidis, ATCC12228, 24 h.
A further series concerns Y48 (MDR). The series is described as follows: microbe, parasite or virus in culture. It is filed as cell-based, M. tuberculosis. The following applies: for MIC: Mycobacterium tuberculosis.
In a further series the test system is E. faecium ATCC19434. The experiment in a line: MIC against other strains, agar double dilution. The settings on record: Enterococcus faecium, ATCC19434, 24 h.
For a further series, the system named is S. aureus ATCC33591. The experiment in a line: MIC against other strains, agar double dilution. The settings on record: Staphylococcus aureus, ATCC33591, 24 h.
The subject of another series is E. coli ATCC35218. The series is described as follows: MIC against other strains, agar double dilution. The following applies: Escherichia coli, ATCC35218, 24 h.
Another series deals with M. tuberculosis H37Ra. The experiment in a line: microbe, parasite or virus in culture. The format is cell-based, Mycobacterium tuberculosis. The settings on record: for MIC: Mycobacterium tuberculosis, H37RA, read-out: MIC against H37Ra.
The subject of series [3] is Klebsiella pneumoniae ATCC700603. The series is described as follows: MIC against other strains, agar double dilution. The following applies: ATCC700603, 24 h.
In series [4] the test system is Escherichia coli ATCC25922. The experiment in a line: MIC against other strains, agar double dilution. The settings on record: ATCC25922, 24 h.
For series [5], the system named is Staphylococcus aureus ATCC29213. The experiment in a line: MIC against other strains, agar double dilution. The following applies: ATCC29213, 24 h.
The test system of series [6] is Pseudomonas aeruginosa ATCC27853. The experiment in a line: MIC against other strains, agar double dilution. The settings on record: ATCC27853, 24 h.
In the next series the test system is Y17 (MDR). The experiment in a line: microbe, parasite or virus in culture. The format is cell-based, M. tuberculosis. The settings on record: for MIC: Mycobacterium tuberculosis.
The nature of another series: in vitro. The format is in vitro ADME. The following applies: rat, plasma, pH 7.4.
The target in the next series is T1, human PDE6C (Homo sapiens, UniProt P51160).
T1 construct: purchased BPS 60060
T1 sequence (P51160 whole entry): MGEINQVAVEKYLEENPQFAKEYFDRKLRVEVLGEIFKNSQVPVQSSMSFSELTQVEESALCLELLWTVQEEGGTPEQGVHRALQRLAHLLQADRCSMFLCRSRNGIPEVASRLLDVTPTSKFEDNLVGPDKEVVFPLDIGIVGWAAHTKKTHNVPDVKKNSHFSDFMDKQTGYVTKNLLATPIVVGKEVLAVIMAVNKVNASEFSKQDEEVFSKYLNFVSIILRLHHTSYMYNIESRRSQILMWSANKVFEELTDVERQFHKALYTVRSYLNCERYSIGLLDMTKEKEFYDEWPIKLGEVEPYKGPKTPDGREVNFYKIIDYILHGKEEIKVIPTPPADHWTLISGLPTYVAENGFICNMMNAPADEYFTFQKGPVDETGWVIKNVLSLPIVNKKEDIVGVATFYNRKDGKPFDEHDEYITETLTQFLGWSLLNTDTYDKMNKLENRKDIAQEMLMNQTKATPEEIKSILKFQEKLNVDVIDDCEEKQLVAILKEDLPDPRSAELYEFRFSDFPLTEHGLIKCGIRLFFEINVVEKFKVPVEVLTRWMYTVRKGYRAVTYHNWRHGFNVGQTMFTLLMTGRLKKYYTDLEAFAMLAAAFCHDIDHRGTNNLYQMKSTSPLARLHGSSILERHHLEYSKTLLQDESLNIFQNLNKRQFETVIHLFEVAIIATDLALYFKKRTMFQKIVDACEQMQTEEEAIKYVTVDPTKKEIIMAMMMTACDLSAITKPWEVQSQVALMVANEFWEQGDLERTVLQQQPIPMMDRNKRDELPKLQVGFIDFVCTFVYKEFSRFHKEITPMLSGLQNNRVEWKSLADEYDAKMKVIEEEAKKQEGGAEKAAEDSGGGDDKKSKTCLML
The series is described as follows: IMAP fluorescence polarization assay against PDE6C. It is filed as biochemical. Background: In fluorescence polarisation assays a small probe gives low polarisation when free and higher when bound to something large.

The nature of the next series: physchem. The format is physicochemical. The settings on record: 37 °C, water, thermodynamic from solid.

Values after ≈ are worked out from the molar mass of the structure shown. A value given as a limit tells only on which side of the number the result lay.

The source of these data is PMC10581193 (Microbiology Spectrum, 2023).

Usually IC50 stands for the midpoint of a concentration-inhibition curve. Read a high IC50 as weaker potency. Broadly, the fraction unbound is the share of the substance not bound to proteins or other matrix. A high value points to much free substance. By solubility is commonly meant how much of the substance goes into solution per volume. Read a high solubility as a readily soluble substance.

Experimental for human PDE6C: Prepare assay buffer and stop buffer were prepared. […] Fluorescein Amidite - cyclic Guanosine Monophosphate (FAM-cGMP) was added in the 1× assay buffer for PDE6C, which was the 2× substrate solution. Two times enzyme solution was transferred to the assay plate: (i) assay plate already contained corresponding volume of compound in 100% DMSO; (ii) add 2× enzyme solution to each well of the 384-well assay plate; and (iii) incubate at room temperature for 15 min. Two times substrate solution was transferred to the assay plate. PDE reaction and termination: (i) incubate at 25°C for 40 min; (ii) add stop buffer to stop reaction, and incubate at RT for 60 min. Data were collected on Envision (Perkin Elmer). Data were fitted in Excel to obtain inhibition values using equation (1). Equation (1): Inh % = (Max − Signal)/(Max − Min) × 100. Fit the data in XL-Fit to obtain IC50 values using equation (2). Equation (2): Y = Bottom + (Top − Bottom)/[1 + (IC50/X) × HillSlope]. Y is the % inhibition and X is the compound concentration.
Experimental for in vitro: 0.1 M sodium phosphate and 0.15 M NaCl buffer (pH = 7.4 ± 0.1) were preheated. The frozen plasma was thawed at 37°C. Plasma was centrifuged at 12,000 rpm for 5 min to remove clots. Pipette and collect the supernatant as the plasma to be used in the experiment. Dialysis membrane strips were soaked in distilled water for an hour. Add 20% by volume ethanol and soak for a further 20 min. The membrane strips were then rinsed in distilled water three times before use. Five microliters of 10 mM stock solution were added into 95 µL of acetonitrile (ACN) for reference and test compounds, which was 0.5 mM solution A. Eight microliters of 10 mM stock solution were added into 192 µL of ACN for reference and test compounds, which was 0.02 mM solution B. A 96-well plate with 380 µL aliquots of plasma was preloaded in the wells designated for plasma, respectively. Twenty microliters of solution B (0.02 mM) were spiked into the pre-loaded plasma in the 96-well plate. The final concentration is 1 µM, containing 0.01% DMSO. Aliquots of 100 µL of blank dialysis buffer were applied to the receiver side of dialysis chambers. Then, aliquots of 100 µL of the plasma spiked with test and reference compounds were applied to the donor side of the dialysis chambers (always add the blank buffer to the receiver first, clearly mark the buffer and plasma chamber holes to avoid cross-contamination). […]
Experimental for physchem: Aqueous solubility of selected compounds was determined by High Performance Liquid Chromatography (HPLC) analysis. […] The absorption intensity of different concentrations of solutions was obtained by HPLC. The linear regression equation between absorption intensity and concentration was obtained by statistical method (R ^2 >0.99). A supersaturated aqueous solution of the target compound was prepared and shaken in 37°C water bath for 24 h. The supersaturated solution was centrifuged and filtered. The absorption intensity of the supersaturated solution was obtained by HPLC. The concentration of saturated aqueous solution was obtained by linear regression equation, which was the aqueous solubility of target compound.

Take `COc1ncnc(Cn2cc(C(=O)NCCO)c3ncc(C)cc32)c1C` [TBA-7371, reference compound]: the MIC was greater than 64 µg/mL in [1]; 2.5 µg/mL (≈ 7.03 µM) in the series with H37Rv (72 h, 3 days); 0.625 µg/mL (≈ 1.76 µM) against H37Rv (168 h, 7 days); greater than 64 µg/mL in series [2]; 1.25 µg/mL (≈ 3.52 µM) in the series with Y198 (XDR); greater than 64 µg/mL against S. epidermidis ATCC12228. In addition, the MIC with Y48 (MDR) is 0.6 µg/mL (≈ 1.69 µM); in the series with E. faecium ATCC19434, greater than 64 µg/mL; in the series on S. aureus ATCC33591, greater than 64 µg/mL; in the series with E. coli ATCC35218, greater than 64 µg/mL; with M. tuberculosis H37Ra, 0.18 µg/mL (≈ 0.506 µM); in series [3], greater than 64 µg/mL. Besides, the MIC in series [4] was greater than 64 µg/mL; in series [5], greater than 64 µg/mL; in series [6] it was greater than 64 µg/mL; with Y17 (MDR), 0.6 µg/mL (≈ 1.69 µM). The IC50 in the series with A549 and with VERO was greater than 40 µM each time.

With “6-bromo-N-(2,2-difluoroethyl)-4-((2-methoxy-5-(trifluoromethyl)pyridin-3-yl)methyl)-3,4-dihydro-2H-benzo[b][1,4]oxazine-8-carboxamide [B5]”, the “MIC against H37Ra” value against M. tuberculosis H37Ra was greater than 25 µg/mL.

“6-bromo-N-(2-fluoroethyl)-4-((2-methoxy-5-(trifluoromethyl)pyridin-3-yl)methyl)-3,4-dihydro-2H-benzo[2, 4]oxazine-8-carboxamide [B3]”: the “MIC against H37Ra” value against M. tuberculosis H37Ra came out at 1.56 µg/mL.

Turning to `COc1ccc(F)c(F)c1Cn1ccc2c(C(=O)NCC(F)F)cc(C)cc21` [A7, 1-(2,3-difluoro-6-methoxybenzyl)-N-(2,2-difluoroethyl)-6-methyl-1H-indole-4-carboxamide], the MIC in the series on M. tuberculosis H37Ra is greater than 6.25 µg/mL.

On to `Cc1nc(C)c(CN2CCOc3c(C(=O)NCC(F)(F)F)cc(C4CC4)cc32)nc1C` [B18, 6-cyclopropyl-N-(2,2,2-trifluoroethyl)-4-((3,5,6-trimethylpyrazin-2-yl)methyl)-3,4-dihydro-2H-benzo[b][1,4]oxazine-8-carboxamide], for which the MIC in series [1] was greater than 64 µg/mL; in the series on H37Rv (72 h, 3 days), 0.625 µg/mL (≈ 1.44 µM); in the series on H37Rv (168 h, 7 days), 0.625 µg/mL (≈ 1.44 µM); in series [2] it was greater than 64 µg/mL; against Y198 (XDR), 5 µg/mL (≈ 11.5 µM); against S. epidermidis ATCC12228, greater than 64 µg/mL. In addition, the MIC against Y48 (MDR) is 0.6 µg/mL (≈ 1.38 µM); in the series on E. faecium ATCC19434, greater than 64 µg/mL; against S. aureus ATCC33591, greater than 64 µg/mL; against E. coli ATCC35218, greater than 64 µg/mL; in the series on M. tuberculosis H37Ra, 0.18 µg/mL (≈ 0.414 µM); in series [3] it was 64 µg/mL (≈ 147 µM). In addition, the MIC is 64 µg/mL (≈ 147 µM) in series [4], greater than 64 µg/mL in series [5], 64 µg/mL (≈ 147 µM) in series [6] and 0.6 µg/mL (≈ 1.38 µM) against Y17 (MDR). Further, the Fold increase in the series on H37Rv (3 days) is 4; in the series on H37Rv (7 days), 1; with Y198 (XDR) ([…], B18 versus TBA-7371) it was 0.25; with Y48 (MDR) ([…], B18 versus TBA-7371) it was 1; with Y17 (MDR) ([…], B18 versus TBA-7371), 1. Further, the half-inhibitory concentration (IC50) in the series with A549 was greater than 40 µM; in the series on VERO it was greater than 40 µM; against human PDE6C it was 81 µM. The fraction unbound at 5 h, 1 µM in the series “in vitro” is 0.042. This compound also gave an MBC/MIC against M. tuberculosis H37Ra of less than 4. Also, the “MIC against H37Ra” value in the series with M. tuberculosis H37Ra is listed as 0.18. This compound also showed a solubility at 24 h in “physchem” of 21 µg/mL (≈ 48.3 µM).

Regarding `COc1ccc(F)c(F)c1CN1CCOc2c(C(=O)NCCF)cc(Br)cc21` [B6, 6-bromo-4-(2,3-difluoro-6-methoxybenzyl)-N-(2-fluoroethyl)-3,4-dihydro-2H-benzo[b][1,4]oxazine-8-carboxamide], in the series on M. tuberculosis H37Ra, the MIC was greater than 100 µg/mL.

Consider `COc1ccc(F)c(F)c1CN1CCOc2c(C(=O)NCC(F)F)cc(Br)cc21` [B7, 6-bromo-4-(2,3-difluoro-6-methoxybenzyl)-N-(2,2-difluoroethyl)-3,4-dihydro-2H-benzo[b][1,4]oxazine-8-carboxamide], for which the MIC in the series with M. tuberculosis H37Ra was greater than 100 µg/mL.

Consider `Cc1nc(C)c(CN2CCOc3c(C(=O)NCC(F)(F)F)cc(-c4ccccc4)cc32)nc1C` [B33], for which the MIC in the series with M. tuberculosis H37Ra was greater than 25 µg/mL.

On to `Cc1nc(C)c(Cn2ccc3c(C(=O)NCC(F)F)cc(Br)cc32)nc1C` [A3, 6-bromo-N-(2,2-difluoroethyl)-1-((3,5,6-trimethylpyrazin-2-yl)methyl)-1H-indole-4-carboxamide], for which the MIC with M. tuberculosis H37Ra is greater than 6.25 µg/mL.

Consider `O=C(NCC(F)(F)F)c1cc(C2CC2)cc2c1OCCN2Cc1ccc2ccccc2c1` [B20, 6-cyclopropyl-4-(naphthalen-2-ylmethyl)-N-(2,2,2-trifluoroethyl)-3,4-dihydro-2H-benzo[b][1,4]oxazine-8-carboxamide], for which, in the series with M. tuberculosis H37Ra, the MIC is greater than 25 µg/mL.
